Measurements as given in patent publication US12484584B2, “Methods and uses of a mixture comprising alpha-cypermethrin and dinotefuran for controlling bed bugs” (BASF AGRO B.V., priority 2020, dated 2025).
Read-outs that look alike come from different tables or passages of the source.

System: C. lectularius
Assay: residual contact assay in treated glass vials, with Colby synergy analysis
Assay type: in vivo
Settings: Cimex lectularius, 72 h; for mortality at 1 ppm: 1 ppm alpha-cypermethrin; for mortality at 2 ppm: 2 ppm dinotefuran; for mortality at 4 ppm: 4 ppm dinotefuran; for mortality at 6 ppm: 6 ppm dinotefuran; for mortality at 8 ppm: 8 ppm dinotefuran
Procedure: Glass vials (20 mL scintillation) were treated with 445 μL of varying concentrations of α-cypermethrin dissolved in acetone, respectively dinotefuran or mixtures of α-cypermethrin and dinotefuran in the indicated ratios. Vials were turned on their sides and placed on an automated roller table. The vials were rolled (6 rpm) uncapped to allow an even coating of the treatment. After rolling, vials were allowed to completely dry for at least an hour. Each treatment was replicated five times. Approximately six bed bugs, Cimex lectularius, were placed into each vial and were exposed to treatments at room temperature for the duration of the study.
After dose response testing, assays combining two active ingredients were conducted using the same method described above. The rates used in the combination treatments for each active ingredient, α-cypermethrin and dinotefuran, were the same concentrations used when they were tested independently.
When applied in combination, the toxicological interaction between two compounds is classified based on the resultant impact on the observed effect. The interaction is termed antagonistic when the observed effect is less than the Colby expected mortality based on the responses of the two compounds applied independently at the same doses. When the observed effect of two compounds applied in combination is equal to that of the Colby expected mortality based on the responses of the two compounds applied independently, the relationship is described as additive. Finally, a synergistic interaction means that the effect of the two compounds applied in combination is greater than the Colby expected mortality based on the responses of the two compounds applied independently at the same doses.
Ataxia+mortality data at 48 hours were used to determine whether there was a synergistic effect in the combined use of α-cypermethrin and dinotefuran.
Abbott's correction for control mortality and the Colby method for testing synergy were used to analyze combination data. The method is as follows: Abbott's corrected mortality per observation (at 3 DAE)=[(% observed mortality−% control mortality)/(100%−% control mortality)]×100. Colby's expected mortality per combination observation=% mortality (A)+% mortality (B)−(% mortality (A)×% mortality (B))/100. Synergy ratio=% observed mortality/% Colby expected mortality.
Additive interactions have synergy ratios equal to 1, antagonistic interactions have synergy ratios of less than 1, and synergistic interactions have synergy ratios of greater than 1.

[1] = corrected for control mortality, read-out: Abbott's CM (Abbott's corrected mortality)
[2] = residual contact, read-out: Mortality (%) @ 72 h

Structure (SMILES) | mortality at 1 ppm [1] | mortality at 1 ppm [2] | mortality at 2 ppm [1] | mortality at 2 ppm [2] | mortality at 4 ppm [1] | mortality at 4 ppm [2] | mortality at 6 ppm [1] | mortality at 6 ppm [2] | mortality at 8 ppm [1] | mortality at 8 ppm [2]
CC1(C)C(C=C(Cl)Cl)C1C(=O)OC(C#N)c1cccc(Oc2ccccc2)c1 (racemic) [alpha-cypermethrin, racemate comprising (R)-α-cyano-3-phenoxybenzyl (1S, 3S)-3-(2,2-dichlorovinyl)-2,2-dimethylcyclopropanecarboxylate; (S)-α-cyano-3-phenoxybenzyl (1R, 3R)-3-(2,2-dichlorovinyl)-2,2-dimethylcyclopropanecarboxylate] | 24.1% | 26.7% |  |  |  |  |  |  |  | 
CNC(=N[N+](=O)[O-])NCC1CCOC1 (racemic) [dinotefuran, (RS)-1-methyl-2-nitro-3-(tetrahydro-3-furylmethyl) guanidine] |  |  | 3.4% | 6.7% | 3.4% | 6.7% | 3.4% | 6.7% | 3.4% | 6.7%
